# Laboratory results reported in PubChem BioAssay AID1259407 (Chemical Carcinogenesis Research Information System (CCRIS), 2018).
# Calls of active or inactive are those of the source. How the calls were made is not given here.
# Tested on: CCRIS mutagenicity, Ames/micronucleus/aberration tests
# Assay: CCRIS mutagenicity studies
# [1] = Test System: AMES SALMONELLA TYPHIMURIUM, Strain/Indicator: TA97, Metabolic Activation: NONE, Method: PREINCUBATION
# [2] = Test System: AMES SALMONELLA TYPHIMURIUM, Strain/Indicator: TA98, Metabolic Activation: HAMSTER, LIVER, S-9, AROCLOR 1254 (10%), Method: PREINCUBATION
# [3] = Test System: AMES SALMONELLA TYPHIMURIUM, Strain/Indicator: TA98, Metabolic Activation: NONE, Method: PREINCUBATION
# [4] = Test System: AMES SALMONELLA TYPHIMURIUM, Strain/Indicator: TA98, Metabolic Activation: RAT, LIVER, S-9, AROCLOR 1254 (10%), Method: PREINCUBATION
# [5] = Test System: AMES SALMONELLA TYPHIMURIUM, Strain/Indicator: TA100, Metabolic Activation: HAMSTER, LIVER, S-9, AROCLOR 1254 (10%), Method: PREINCUBATION
# [6] = Test System: AMES SALMONELLA TYPHIMURIUM, Strain/Indicator: TA100, Metabolic Activation: NONE, Method: PREINCUBATION
# [7] = Test System: AMES SALMONELLA TYPHIMURIUM, Strain/Indicator: TA100, Metabolic Activation: RAT, LIVER, S-9, AROCLOR 1254 (10%), Method: PREINCUBATION
# [8] = Test System: AMES SALMONELLA TYPHIMURIUM, Strain/Indicator: TA1535, Metabolic Activation: HAMSTER, LIVER, S-9, AROCLOR 1254 (10%), Method: PREINCUBATION
# [9] = Test System: AMES SALMONELLA TYPHIMURIUM, Strain/Indicator: TA1535, Metabolic Activation: NONE, Method: PREINCUBATION
# [10] = Test System: AMES SALMONELLA TYPHIMURIUM, Strain/Indicator: TA1535, Metabolic Activation: RAT, LIVER, S-9, AROCLOR 1254 (10%), Method: PREINCUBATION
# [11] = Test System: AMES SALMONELLA TYPHIMURIUM, Strain/Indicator: TA97, Metabolic Activation: NONE, Method: STANDARD PLATE
# [12] = Test System: AMES SALMONELLA TYPHIMURIUM, Strain/Indicator: TA98, Metabolic Activation: NONE, Method: STANDARD PLATE
# [13] = Test System: AMES SALMONELLA TYPHIMURIUM, Strain/Indicator: TA100, Metabolic Activation: NONE, Method: STANDARD PLATE
# [14] = Test System: AMES SALMONELLA TYPHIMURIUM, Strain/Indicator: TA98, Metabolic Activation: RAT, LIVER, S-9, AROCLOR 1254, Method: STANDARD PLATE
# [15] = Test System: AMES SALMONELLA TYPHIMURIUM, Strain/Indicator: TA100, Metabolic Activation: RAT, LIVER, S-9, AROCLOR 1254, Method: STANDARD PLATE
smiles,measurement,setting,value
C=CC(=O)OCCBr,mutagenic call,"Test System: AMES SALMONELLA TYPHIMURIUM, Strain/Indicator: TA97, Metabolic Activation: HAMSTER, LIVER, S-9, AROCLOR 1254 (10%), Method: PREINCUBATION",inactive; negative
same,mutagenic call,[1],inactive; negative
same,mutagenic call,"Test System: AMES SALMONELLA TYPHIMURIUM, Strain/Indicator: TA97, Metabolic Activation: RAT, LIVER, S-9, AROCLOR 1254 (10%), Method: PREINCUBATION",inactive; negative
same,mutagenic call,[2],inactive; negative
same,mutagenic call,[3],inactive; negative
same,mutagenic call,[4],inactive; negative
same,mutagenic call,[5],active; positive
same,mutagenic call,[6],inactive; negative
same,mutagenic call,[7],active; positive
same,mutagenic call,[8],active; positive
same,mutagenic call,[9],active; positive
same,mutagenic call,[10],active; positive
O=C(O)CC(O)C(=O)O (stereo not drawn),mutagenic call,[1],inactive; negative
same,mutagenic call,[11],inactive; negative
same,mutagenic call,"Test System: AMES SALMONELLA TYPHIMURIUM, Strain/Indicator: TA97, Metabolic Activation: RAT, LIVER, S-9, AROCLOR 1254, Method: PREINCUBATION",inactive; negative
same,mutagenic call,"Test System: AMES SALMONELLA TYPHIMURIUM, Strain/Indicator: TA97, Metabolic Activation: RAT, LIVER, S-9, PHENOBARBITAL, Method: STANDARD PLATE",inactive; negative
same,mutagenic call,[12],inactive; negative
same,mutagenic call,"Test System: AMES SALMONELLA TYPHIMURIUM, Strain/Indicator: TA98, Metabolic Activation: RAT, LIVER, S-9, PHENOBARBITAL, Method: STANDARD PLATE",inactive; negative
same,mutagenic call,[13],inactive; negative
same,mutagenic call,"Test System: AMES SALMONELLA TYPHIMURIUM, Strain/Indicator: TA100, Metabolic Activation: RAT, LIVER, S-9, PHENOBARBITAL, Method: STANDARD PLATE",inactive; negative
same,mutagenic call,"Test System: AMES SALMONELLA TYPHIMURIUM, Strain/Indicator: TA102, Metabolic Activation: NONE, Method: PREINCUBATION",inactive; negative
same,mutagenic call,"Test System: AMES SALMONELLA TYPHIMURIUM, Strain/Indicator: TA102, Metabolic Activation: RAT, LIVER, S-9, AROCLOR 1254, Method: PREINCUBATION",inactive; negative
same,mutagenic call,"Test System: AMES SALMONELLA TYPHIMURIUM, Strain/Indicator: TA104, Metabolic Activation: NONE, Method: STANDARD PLATE",inactive; negative
same,mutagenic call,"Test System: AMES SALMONELLA TYPHIMURIUM, Strain/Indicator: TA104, Metabolic Activation: RAT, LIVER, S-9, PHENOBARBITAL, Method: STANDARD PLATE",inactive; negative
C=CC(=O)CC,mutagenic call,[6],active; positive
same,mutagenic call,"Test System: AMES SALMONELLA TYPHIMURIUM, Strain/Indicator: TA100, Metabolic Activation: RAT, LIVER, S-9, AROCLOR, Method: PREINCUBATION",active; positive
O=C1C(c2[nH]c3ccc(S(=O)(=O)O)cc3c2O)=Nc2ccc(S(=O)(=O)O)cc21,mutagenic call,[3],inactive; negative
same,mutagenic call,"Test System: AMES SALMONELLA TYPHIMURIUM, Strain/Indicator: TA98, Metabolic Activation: S-9, Method: PREINCUBATION",inactive; negative
same,mutagenic call,[6],inactive; negative
same,mutagenic call,"Test System: AMES SALMONELLA TYPHIMURIUM, Strain/Indicator: TA100, Metabolic Activation: S-9, Method: PREINCUBATION",inactive; negative
same,mutagenic call,"Test System: Mouse lymphoma, Strain/Indicator: L5178Y (tk+/tk-), Metabolic Activation: None, Method: Suspension/plate",inactive; negative
same,mutagenic call,"Test System: Mouse lymphoma, Strain/Indicator: L5178Y (tk+/tk-), Metabolic Activation: Rat, liver, S-9, Aroclor 1254, Method: Suspension/plate",active; positive
CN(C)C,mutagenic call,[2],inactive; negative
same,mutagenic call,[3],inactive; negative
same,mutagenic call,[4],inactive; negative
same,mutagenic call,[5],inactive; negative
same,mutagenic call,[6],inactive; negative
same,mutagenic call,[7],inactive; negative
same,mutagenic call,[8],inactive; negative
same,mutagenic call,[9],inactive; negative
same,mutagenic call,[10],inactive; negative
same,mutagenic call,"Test System: AMES SALMONELLA TYPHIMURIUM, Strain/Indicator: TA1537, Metabolic Activation: HAMSTER, LIVER, S-9, AROCLOR 1254 (10%), Method: PREINCUBATION",inactive; negative
same,mutagenic call,"Test System: AMES SALMONELLA TYPHIMURIUM, Strain/Indicator: TA1537, Metabolic Activation: NONE, Method: PREINCUBATION",inactive; negative
same,mutagenic call,"Test System: AMES SALMONELLA TYPHIMURIUM, Strain/Indicator: TA1537, Metabolic Activation: RAT, LIVER, S-9, AROCLOR 1254 (10%), Method: PREINCUBATION",inactive; negative
Cc1ccccc1C(=O)Cl,mutagenic call,[3],inactive; negative
same,mutagenic call,"Test System: AMES SALMONELLA TYPHIMURIUM, Strain/Indicator: TA98, Metabolic Activation: RAT LIVER S-9, PCB, Method: PREINCUBATION",active; positive
same,mutagenic call,[6],inactive; negative
same,mutagenic call,"Test System: AMES SALMONELLA TYPHIMURIUM, Strain/Indicator: TA100, Metabolic Activation: RAT LIVER S-9, PCB, Method: PREINCUBATION",active; positive
same,mutagenic call,"Test System: AMES SALMONELLA TYPHIMURIUM, Strain/Indicator: TA104, Metabolic Activation: NONE, Method: PREINCUBATION",inactive; negative
same,mutagenic call,"Test System: AMES SALMONELLA TYPHIMURIUM, Strain/Indicator: TA104, Metabolic Activation: RAT LIVER S-9, PCB, Method: PREINCUBATION",active; positive
same,mutagenic call,"Test System: E.COLI, Strain/Indicator: WP2 UVRA, Metabolic Activation: NONE, Method: PREINCUBATION",active; positive
same,mutagenic call,"Test System: E.COLI, Strain/Indicator: WP2 UVRA, Metabolic Activation: RAT LIVER S-9, PCB, Method: PREINCUBATION",active; positive
O=[N+]([O-])c1cccc(-c2ccccc2)c1O,mutagenic call,[3],inactive; negative
COC(=O)C12OC1(C)C(C(C)C)OC2=O (stereo not drawn),mutagenic call,"Test System: AMES SALMONELLA TYPHIMURIUM, Strain/Indicator: TA98, Metabolic Activation: NONE, Method: DISK ASSAY",active; positive
same,mutagenic call,[12],active; positive
same,mutagenic call,"Test System: AMES SALMONELLA TYPHIMURIUM, Strain/Indicator: TA98, Metabolic Activation: RAT, LIVER, S-9, AROCLOR 1254, Method: DISK ASSAY",active; positive
same,mutagenic call,[14],active; positive
same,mutagenic call,[13],inactive; negative
same,mutagenic call,[15],active; positive
CCOc1ccc(C(C)(C)C)cc1NC(=O)C(=O)Nc1ccccc1CC,mutagenic call,[11],inactive; negative
same,mutagenic call,"Test System: AMES SALMONELLA TYPHIMURIUM, Strain/Indicator: TA97, Metabolic Activation: S-9, Method: STANDARD PLATE",inactive; negative
same,mutagenic call,[12],inactive; negative
same,mutagenic call,"Test System: AMES SALMONELLA TYPHIMURIUM, Strain/Indicator: TA98, Metabolic Activation: S-9, Method: STANDARD PLATE",inactive; negative
same,mutagenic call,[13],inactive; negative
same,mutagenic call,"Test System: AMES SALMONELLA TYPHIMURIUM, Strain/Indicator: TA100, Metabolic Activation: S-9, Method: STANDARD PLATE",inactive; negative
same,mutagenic call,"Test System: AMES SALMONELLA TYPHIMURIUM, Strain/Indicator: TA102, Metabolic Activation: NONE, Method: STANDARD PLATE",inactive; negative
same,mutagenic call,"Test System: AMES SALMONELLA TYPHIMURIUM, Strain/Indicator: TA102, Metabolic Activation: S-9, Method: STANDARD PLATE",inactive; negative
same,mutagenic call,"Test System: E.COLI, Strain/Indicator: WP2 (PKM101), Metabolic Activation: NONE, Method: STANDARD PLATE",inactive; negative
same,mutagenic call,"Test System: E.COLI, Strain/Indicator: WP2 (PKM101), Metabolic Activation: S-9, Method: STANDARD PLATE",inactive; negative
CC1(OO)c2ccccc2-c2ccccc21,mutagenic call,[12],active; positive
same,mutagenic call,[14],active; positive
same,mutagenic call,[13],active; positive
same,mutagenic call,[15],active; positive
